# Results reported in US12037322B2, “AHR agonists” (Eli Lilly and Company, priority 2021, dated 2024).
# Target: T1, hAHR (Homo sapiens, UniProt P35869)
# T1 construct: expressed in transfected cells
# T1 sequence (P35869 11-848): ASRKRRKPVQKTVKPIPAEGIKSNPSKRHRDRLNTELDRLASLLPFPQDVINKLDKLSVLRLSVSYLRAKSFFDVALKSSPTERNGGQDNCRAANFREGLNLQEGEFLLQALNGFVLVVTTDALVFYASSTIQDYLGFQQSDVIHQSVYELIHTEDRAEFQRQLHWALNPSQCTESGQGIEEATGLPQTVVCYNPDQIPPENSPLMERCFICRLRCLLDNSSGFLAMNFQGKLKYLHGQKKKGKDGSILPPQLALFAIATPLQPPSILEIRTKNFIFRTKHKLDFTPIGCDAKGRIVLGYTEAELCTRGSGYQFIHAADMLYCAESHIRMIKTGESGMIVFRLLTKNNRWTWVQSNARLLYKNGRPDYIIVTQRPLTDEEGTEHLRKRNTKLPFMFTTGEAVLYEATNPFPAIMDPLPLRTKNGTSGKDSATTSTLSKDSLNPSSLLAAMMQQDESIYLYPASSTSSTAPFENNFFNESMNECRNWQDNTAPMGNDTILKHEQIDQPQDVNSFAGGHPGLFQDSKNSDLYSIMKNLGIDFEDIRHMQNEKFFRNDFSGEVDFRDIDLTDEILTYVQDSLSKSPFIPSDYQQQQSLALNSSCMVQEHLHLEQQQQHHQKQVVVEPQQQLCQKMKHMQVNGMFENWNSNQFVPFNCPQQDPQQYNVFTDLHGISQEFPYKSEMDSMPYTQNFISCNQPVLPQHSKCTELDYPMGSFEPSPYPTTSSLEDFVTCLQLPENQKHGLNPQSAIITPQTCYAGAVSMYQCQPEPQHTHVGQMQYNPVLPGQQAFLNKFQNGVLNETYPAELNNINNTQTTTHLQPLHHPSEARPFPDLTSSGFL
# Assay: hAHR nuclear translocation assay
# Format: cell-based
# Details: Jump-In T-REx HEK293 cells expressing AhR-EGFP; 45 min incubation; ratio of EGFP intensity in nuclear over cytosol; 20-point curve
# Method: Stable cell lines were established using Jump-In™ T-REx™ HEK293 Retargeting Kit (Life Technologies). hAhR cDNA was cloned into the pJTI R4 CMV-TO EGFP vector. The EGFP was cloned to the C-terminal of AHR to form AhR-EGFP chimera. The pJTI R4 CMV-TO AhR-EGFP vector was transfected using FuGENE® HD into Jump-In™ T-REx™ HEK293 cells. Transfected cells were selected using 2.5 mg/ml G418 for 10 to 14 days, then expanded, harvested, and suspended in freeze media (FBS with 8% DMSO) at 2×10^7 cells/mL, and aliquots were stored in liquid nitrogen. One day before the assay date, cells were thawed and resuspended in DMEM with 5% FBS in the presence of 1 μg/mL Doxycycline and plated into ploy-L-Lysine coated […]-384 ULTRA Microplates (Perkin Elmer) at 12,000 to 15,000 cells per well and incubated at 37° C. and 5% CO2 overnight. On the assay date, compound was serially diluted (1:2) into 384-well nunc plates with DMSO using acoustic dispensing (ECHO). The dose response was a 20-point curve. Compound was resuspended in 40 μL of DMEM plus 0.1% BSA. The culture media was damped and 25 μL of DMEM plus 0.1% BSA was added, then 25 μL of compound in DMEM plus 0.1% BSA was added into cell plates. Cells were incubated with compounds at 37° C. and 5% CO2 for 45 min.
# The final DMSO concentration was 0.2%. The media was damped after 45 minutes incubation. The cells were fixed with 40 μL of cold MeOH (−20° C.) for 20 min. The MeOH was damped and 50 μL of DPBS containing 1 μg/mL Hochst was added into the cell plates. The intensity of EGFP was quantitated by using OPERA PHENIX® or Operetta™ high content image system (Perkin Elmer) with 20× Water Objective and five field per well. The ratio of EGFP fluorescent intensity in nuclear over cytosol was analyzed using a 4-parameter nonlinear logistic equation to determine the potency of AhR agonists.
row,Structure (SMILES),EC50 [nM]
1,"CC1CCc2c1c(O)c(C(=O)Nc1ncco1)c(=O)n2C (single isomer, unassigned) [Example 34, 4-Hydroxy-1,5-dimethyl-N-oxazol-2-yl-2-oxo-6,7-dihydro-5H-cyclopenta[b]pyridine-3-carboxamide]",7.46
2,"CCC1CCc2c1cc(C(=O)Nc1ncc(F)cn1)c(=O)n2C (single isomer, unassigned) [Example 115, 5-ethyl-N-(5-fluoropyrimidin-2-yl)-1-methyl-2-oxo-6,7-dihydro-5H-cyclopenta[b]pyridine-3-carboxamide]",2.96
3,"Cn1c2c(cc(C(=O)Nc3ncccn3)c1=O)C(C)(C)CC2 [Example 46, 1,5,5-Trimethyl-2-oxo-N-pyrimidin-2-yl-6,7-dihydrocyclopenta[b]pyridine-3-carboxamide]",31.5
4,"CC1CCc2c1c(O)c(C(=O)Nc1cnsc1)c(=O)n2C (single isomer, unassigned) [Example 40, 4-Hydroxy-N-isothiazol-4-yl-1,5-dimethyl-2-oxo-6,7-dihydro-5H-cyclopenta[b]pyridine-3-carboxamide]",2.37
5,"C[C@H]1CCc2c1cc(C(=O)Nc1ncc(F)cn1)c(=O)n2C [Example 13, (5S)-N-(5-Fluoropyrimidin-2-yl)-1,5-dimethyl-2-oxo-6,7-dihydro-5H-cyclopenta[b]pyridine-3-carboxamide]",4.67
6,"CCC1CCc2c1cc(C(=O)Nc1ncc(F)cn1)c(=O)n2C (single isomer, unassigned) [Example 114, 5-ethyl-N-(5-fluoropyrimidin-2-yl)-1-methyl-2-oxo-6,7-dihydro-5H-cyclopenta[b]pyridine-3-carboxamide]",2.44
7,"CC1CCc2c1c(O)c(C(=O)Nc1ccccn1)c(=O)n2C (single isomer, unassigned) [Example 89, 4-Hydroxy-1,5-dimethyl-2-oxo-N-(2-pyridyl)-6,7-dihydro-5H-cyclopenta[b]pyridine-3-carboxamide]",2.33
8,"CC1CCc2c1c(O)c(C(=O)Nc1ncccc1F)c(=O)n2C (single isomer, unassigned) [Example 92, N-(3-Fluoro-2-pyridyl)-4-hydroxy-1,5-dimethyl-2-oxo-6,7-dihydro-5H-cyclopenta[b]pyridine-3-carboxamide]",1.44
9,"CC1CCc2c1cc(C(=O)Nc1ncc(C(F)(F)F)cn1)c(=O)n2C (single isomer, unassigned) [Example 64, 1,5-Dimethyl-2-oxo-N-[5-(trifluoromethyl)pyrimidin-2-yl]-6,7-dihydro-5H-cyclopenta[b]pyridine-3-carboxamide]",1.54
10,"CC1CCc2c1c(O)c(C(=O)Nc1ncccc1F)c(=O)n2C (single isomer, unassigned) [Example 91, N-(3-Fluoro-2-pyridyl)-4-hydroxy-1,5-dimethyl-2-oxo-6,7-dihydro-5H-cyclopenta[b]pyridine-3-carboxamide]",4.86
11,"C[C@H]1CCc2c1cc(C(=O)Nc1ccns1)c(=O)n2C [Example 17, (5S)-N-Isothiazol-5-yl-1,5-dimethyl-2-oxo-6,7-dihydro-5H-cyclopenta[b]pyridine-3-carboxamide]",1.34
12,"CC1CCc2c1cc(C(=O)Nc1ccc(C(F)(F)F)nc1)c(=O)n2C (stereo not drawn) [Example 6, 1,5-Dimethyl-2-oxo-N-[6-(trifluoromethyl)-3-pyridyl]-6,7-dihydro-5H-cyclopenta[b]pyridine-3-carboxamide]",4.57
13,"CC(C)CCNC(=O)c1c(O)c2c(n(C)c1=O)CCCC2 [Example 111, 4-Hydroxy-N-isopentyl-1-methyl-2-oxo-5,6,7,8-tetrahydroquinoline-3-carboxamide]",10.3
14,"CC1CCc2c1c(O)c(C(=O)Nc1ncc(C(F)(F)F)cn1)c(=O)n2C (stereo not drawn) [Example 32, 4-Hydroxy-1,5-dimethyl-2-oxo-N-[5-(trifluoromethyl)pyrimidin-2-yl]-6,7-dihydro-5H-cyclopenta[b]pyridine-3-carboxamide]",0.845

# Continued, values first:
row,EC50 [nM],Structure (SMILES)
1,3.59,"CC1CCc2c1cc(C(=O)Nc1ccc(C(F)(F)F)cn1)c(=O)n2C (single isomer, unassigned) [Example 59, 1,5-Dimethyl-2-oxo-N-[5-(trifluoromethyl)-2-pyridyl]-6,7-dihydro-5H-cyclopenta[b]pyridine-3-carboxamide]"
2,1.06,"CC1CCc2c1c(O)c(C(=O)Nc1ncc(Cl)cn1)c(=O)n2C (single isomer, unassigned) [Example 93, N-(5-Chloropyrimidin-2-yl)-4-hydroxy-1,5-dimethyl-2-oxo-6,7-dihydro-5H-cyclopenta[b]pyridine-3-carboxamide]"
3,0.502,"Cn1c2c(cc(C(=O)Nc3ccccc3)c1=O)CCCC2 [Example 104, 1-Methyl-2-oxo-N-phenyl-5,6,7,8-tetrahydroquinoline-3-carboxamide]"
4,16.2,"Cn1c2c(cc(C(=O)Nc3ccccn3)c1=O)CC(C)(C)C2 [Example 45, 1,6,6-Trimethyl-2-oxo-N-(2-pyridyl)-5,7-dihydrocyclopenta[b]pyridine-3-carboxamide]"
5,2.5,"Cn1c2c(cc(C(=O)Nc3ccccc3)c1=O)CCC2 [Example 108, 1-Methyl-2-oxo-N-phenyl-6,7-dihydro-5H-cyclopenta[b]pyridine-3-carboxamide]"
6,6.01,"COc1cnc(NC(=O)c2c(O)c3c(n(C)c2=O)CCC3C)nc1 (single isomer, unassigned) [Example 101, 4-Hydroxy-N-(5-methoxypyrimidin-2-yl)-1,5-dimethyl-2-oxo-6,7-dihydro-5H-cyclopenta[b]pyridine-3-carboxamide]"
7,4.1,"CC1CCc2c1c(O)c(C(=O)Nc1ncccn1)c(=O)n2C (single isomer, unassigned) [Example 85, 4-Hydroxy-1,5-dimethyl-2-oxo-N-pyrimidin-2-yl-6,7-dihydro-5H-cyclopenta[b]pyridine-3-carboxamide]"
8,1.82,"CC1CCc2c1cc(C(=O)Nc1ccc(C(F)(F)F)cn1)c(=O)n2C (stereo not drawn) [Example 4, 1,5-Dimethyl-2-oxo-N-[5-(trifluoromethyl)-2-pyridyl]-6,7-dihydro-5H-cyclopenta[b]pyridine-3-carboxamide]"
9,2.12,"CC1CCc2c1c(O)c(C(=O)Nc1ccc(F)cn1)c(=O)n2C (single isomer, unassigned) [Example 99, N-(5-Fluoro-2-pyridyl)-4-hydroxy-1,5-dimethyl-2-oxo-6,7-dihydro-5H-cyclopenta[b]pyridine-3-carboxamide]"
10,25.1,"CC1CCc2c1cc(C(=O)Nc1ncccn1)c(=O)n2C (single isomer, unassigned) [Example 82, 1,5-Dimethyl-2-oxo-N-pyrimidin-2-yl-6,7-dihydro-5H-cyclopenta[b]pyridine-3-carboxamide]"
11,396,"CC1CCc2c1cc(C(=O)NC1CCCC1)c(=O)n2C (single isomer, unassigned) [Example 60, N-Cyclopentyl-1,5-dimethyl-2-oxo-6,7-dihydro-5H-cyclopenta[b]pyridine-3-carboxamide]"
12,1.97,"CC1CCc2c1c(O)c(C(=O)Nc1ccns1)c(=O)n2C (single isomer, unassigned) [Example 37, 4-Hydroxy-N-isothiazol-5-yl-1,5-dimethyl-2-oxo-6,7-dihydro-5H-cyclopenta[b]pyridine-3-carboxamide]"
13,2.44,"CC1CCc2c1cc(C(=O)Nc1ccc(F)cn1)c(=O)n2C (single isomer, unassigned) [Example 56, N-(5-Fluoro-2-pyridyl)-1,5-dimethyl-2-oxo-6,7-dihydro-5H-cyclopenta[b]pyridine-3-carboxamide]"
